Paper PMC9608142, “Population pharmacokinetic analysis, renal safety, and dosing optimization of polymyxin B in lung transplant recipients with pneumonia: A prospective study” (Frontiers in Pharmacology, 2022)
Read-outs that look alike come from different tables or passages of the source. Bridge positions count the residues as written; N and C are the ends. Square brackets hold non-standard residues; d marks the D form. Peptide text beside a SMILES is read from it. * marks the point of attachment. X1 = CC[C@H](C)CCCCC(=O)*; Dab = NCC[C@H](N)C(=O)O

Experiments:
[1] = Population pharmacokinetic analysis (NONMEM) of polymyxin B plasma concentrations in lung transplant recipients; format: in vivo, human
Source text: (§1) This prospective study was approved by the Ethical Committees of the affiliated Wuxi People’s Hospital of Nanjing Medical University, China (KS202002), in accordance with the Declaration of Helsinki. The informed consent was obtained from each patient or his/her legal representatives. Adult lung transplant recipients receiving polymyxin B sulfate against confirmed MDR Gram-negative bacterial infections at the affiliated Wuxi People’s Hospital of Nanjing Medical University, from January 2020 to December 2021, were included in this study. The inclusion criteria were as follows: 1) ≥18 years old; 2) diagnosis of pneumonia; 3) receiving polymyxin B therapy for at least 3 days; 4) having at least one plasma concentration of polymyxin B. The exclusion criteria were as follows: 1) allergic or intolerant to polymyxin B; 2) died within 24 h after being treated with polymyxin B.
(§2) The decision to administer polymyxin B (sulfate, Polymyxin B for Injection, Shanghai Number one Biochemical and Pharmaceutical, Shanghai, China) and its medication, including the amount, dosing interval, administration route, and treatment duration, were decided by the attending physician. Generally, the loading dose of 2.0–2.5 mg/kg, and the maintenance dose of 1.25–1.5 mg/kg given every 12 h infused over 1 h was recommended according to the guideline for optimizing polymyxins ([Tsuji et al., 2019]). In addition, inhalation of polymyxin B sulfate (25 mg q12h) was combinedly used.
All the blood samples were collected at least 48 h after initiating polymyxin B ([Tsuji et al., 2019]). In each patient, four blood samples were collected: 0.5 h before starting the infusion, 1, 2, and 6 h after completing the infusion, respectively. After sampling, blood samples were immediately centrifuged at 15,000 rpm for 5 min and stored at −80°C. The concentrations of polymyxin B in the blood samples were determined by a validated high-performance liquid chromatography-tandem mass spectrometry (LC-MS/MS) assay ([Thomas et al., 2012]). The calibration range of polymyxin B by the method was 0.1–30 μg/ml. The method validations including selectivity, recovery, precision, accuracy, matrix effect, calibration curve, and stability met the requirement of FDA principles.
Nonlinear mixed-effects modeling (NONMEM) program (version 7.4, Icon Development Solutions, Ellicott City, MD, United States) and Pirana (version 2.9.7) was used to perform PK analysis of polymyxin B. R (Version 3.6.1) was used to analyze the NONMEM output. The first-order conditional estimation with the interaction between inter-patient variability and residual variability was used for model development.
One- or two-compartment structural model with first-order elimination were explored for the concentration-time profiles. Visual inspection of diagnostic plots and goodness-of-fit criteria, condition number, and improvement of the objective function value (OFV) were performed to evaluate the base model. The pharmacokinetic parameters used for this study were clearance (CL) and volume of distribution (V). Between-subject variability (BSV) was assessed using the exponential model (Eq. 1). Pi=P×EXP(ETA( ηi)) (1) Pi was the individual patient PK parameter; P was the typical value; ηi was the interpatient random variation.
Residual variability was assessed by additive (Eq. 2), proportional (Eq. 3), or combined (additive plus proportional) (Eq. 4) error models, respectively. The optimal one was chosen based on the decrease in OFV. Y=F+EPS (1) (2) Y=F+F×EPS (1) (3) Y=F+F×EPS (1)+EPS(2) (4) Y was the individual observed concentration; F was the individual predictive concentration; EPS was the residual random variation.
Relationships between the potential covariates and individual PK parameters were examined visually. […]

[2] = tested on: carbapenem-resistant organisms (A. baumannii, P. aeruginosa, K. pneumoniae, E. cloacae); experiment: Clinical treatment efficacy and microbiological efficacy in lung transplant recipients with pneumonia; format: in vivo, human
Source text: as §1
The demographic characteristics, laboratory data, pathogenic bacteria, medication information, and adverse events of polymyxin B sulfate were acquired from the patients’ medical records. Clinical success was defined as improvement of clinical symptoms and parameters including body temperature, biochemistry indicators of infection (white cell count ≤ 10^9, C-reactive protein ≤10 mg/L, procalcitonin <0.05 ng/ml, and erythrocyte sedimentation rate <15 mm/h), and clinician-documented improvement at the end of treatment ([Yu et al., 2022]). RIFLE (Risk, Injury, Failure, Loss of function, and End-stage kidney disease) criteria were used to assess the acute kidney injury (AKI) caused by polymyxin B ([Han et al., 2022]). The definition of nephrotoxicity caused by polymyxin B was further confirmed using the Naranjo criteria. Hyperpigmentation is defined as the darkening of the skin’s natural color, usually due to an increase in melanin deposition in the epidermis or dermis ([Lu and Hou, 2020]).
as §2

[3] = cited from earlier work
Source text: Supplement DataSheet1.docx, table 2: Table S2. […] The urinary recovery of polymyxin B is low and non-renal clearance is considered the major route of the clearance of polymyxin B ([Tsuji et al., 2019]), but it undergoes extensive reabsorption by renal tubular cells ([Nang et al., 2021]). […] The ratio of the area of unbound concentration-time curve to the MIC (fAUC/MIC) is the best PK/PD index predicting bacterial killing for polymyxins ([Dudhani et al., 2010a]; [Dudhani et al., 2010b]; [Cheah et al., 2015]). The fAUC/MIC value ≥20 at various MICs (0.5–2 mg/L) was used as the target ([Sandri et al., 2013]), where f (assumed to be 0.42) is the unbound fraction of polymyxin B ([Sandri et al., 2013]). The probability of target attain ... || (+ 2 further places)

[4] = parenteral polymyxin B, mouse infection studies; ref Nang et al., 2021; cited from earlier work
Source text: The urinary recovery of polymyxin B is low and non-renal clearance is considered the major route of the clearance of polymyxin B ([Tsuji et al., 2019]), but it undergoes extensive reabsorption by renal tubular cells ([Nang et al., 2021]).

P. aeruginosa = conditions: thigh infection model, ref Cheah et al., 2015; cited from earlier work
Description: (§3) This is the first study to simulate the PTA and AUCss,24h of different dosage regimens in lung transplant patients. In vitro and animal studies pointed out that fAUC/MIC is the PK/PD index that is best correlated with the efficacy of polymyxins ([Tsuji et al., 2019]). In the thigh infection model, the fAUC/MIC values of colistin for 2log10 bacterial killings were approximately 20 for P. aeruginosa and Acinetobacter Baumannii ([Cheah et al., 2015]). Therefore, considering the similar molecular structures and in vitro activity of colistin and polymyxin B, the fAUC/MIC ≥20 was determined as the P ...

Acinetobacter Baumannii = conditions: thigh infection model, ref Cheah et al., 2015; cited from earlier work
Description: as §3

[5] = bootstrap of final model, median estimate, 1,000 replicates
[6] = adult patients, n = 35, 1 CMT, ref Manchandani et al. 2018 [29]
[7] = adult patients, n = 43, 1 CMT, ref Kubin et al. 2018 [31]
[8] = adult patients, n = 46, 2 CMT, ref Wang et al. 2020 [27]
[9] = adult patients, n = 52, 2 CMT, ref Miglis et al. 2018 [28]
[10] = adult patients, n = 52, ref Miglis et al. 2018 [28]
[11] = critically ill patients, n = 24, 2 CMT, ref Sandri et al. 2013 [22]

CC[C@H](C)CCCCC(=O)N[C@@H](CCN)C(=O)N[C@H](C(=O)N[C@@H](CCN)C(=O)N[C@H]1CCNC(=O)[C@H]([C@@H](C)O)NC(=O)[C@H](CCN)NC(=O)[C@H](CCN)NC(=O)[C@H](CC(C)C)NC(=O)[C@@H](Cc2ccccc2)NC(=O)[C@H](CCN)NC1=O)[C@@H](C)O [polymyxin B] (X1-[Dab]T[Dab][Dab][Dab][dF]L[Dab][Dab]T; lactam 4-C)
θCL, typical value of clearance [1, 5]: 1.72 L/h | θV, typical value of volume of distribution [1, 5]: 14.3 L | effect of concomitant furosemide or albumin on the PK of polymyxin B ([1]; covariate test in lung transplant recipients, limited number of patients): did not significantly affect the PK | θV, typical value of volume of distribution ([1]; final model estimate, 1-compartment): 14.4 L | CrCL on CL (θ1), exponential value for CrCL as covariate of CL ([1]; final model estimate, CrCL/78.49): 0.681 | clearance ([1]; human, plasma, iv, base model estimate (no covariate), read-out: TVCL, typical value of clearance (converted)): 27.5 mL/min | clearance ([1]; human, plasma, iv, final model estimate, 1-compartment, first-order elimination, at median CrCL 78.49 ml/min, read-out: θCL, typical value of clearance (converted)): 28.7 mL/min | clearance ([1]; human, plasma, iv, present study, lung transplant patients, n = 34, read-out: CL (PK Parameters) (converted)): 31.2 mL/min | Vd ([1]; human, plasma, iv, base model estimate, read-out: TVV, typical value of volume): 14.6 L | AUC ([1]; mean ± SD, 34 lung transplant recipients, AUC0-24 by linear-log trapezoidal rule from Bayesian-predicted concentrations, SD): 69660 ± 35920 ng·h/mL | Clinical anti-infective outcome: Failed ([2]; 5 of 34 patients, iv plus inhaled polymyxin B): 5 (14.71%) | Clinical anti-infective outcome: Cured ([2]; 12 of 34 patients, iv plus inhaled polymyxin B, treatment 17.94 ± 7.13 days): 12 (35.29%) | Clinical anti-infective outcome: Improved ([2]; 17 of 34 patients, iv plus inhaled polymyxin B): 17 (50%) | patients considered of clinical cure or improved ([2]; 29 of 34 patients, end of treatment): 85.29% | CL, typical value in PK formula ([3]; adult critically ill patients, n = 32, 1 CMT, CL = 1.59+(CrCL/80)^0.408, ref Yu et al. 2021 [26]): 1.59 L/h | V ([3]; adult critically ill patients, n = 32, 1 CMT, ref Yu et al. 2021 [26]): 20.5 L | CL (PK Parameters) ([3]; adult critically ill patients, n = 32, ref Yu et al. 2021 [26]): 1.75 L/h | CL in PK formula [3, 6]: 2.5 L/h | V [3, 6]: 34.3 L | CL (PK Parameters), mean ([3]; adult patients, n = 35, mean, ref Manchandani et al. 2018 [29]): 2.5 L/h | CL in PK formula [3, 7]: 2.37 L/h | V [3, 7]: 33.4 L | Q [3, 8]: 13.518 L/h | V [3, 8]: 6.218 L | V2 [3, 8]: 11.922 L | CL, typical value in PK formula ([3]; adult patients, n = 46, 2 CMT, ×(CrCL/105.9)^0.362, ref Wang et al. 2020 [27]): 1.786 L/h | CL (PK Parameters), median ([3]; adult patients, n = 46, median, ref Wang et al. 2020 [27]): 1.786 L/h | Q [3, 9]: 2.32 L/h | Vc [3, 9]: 33.77 L | Vp [3, 9]: 78.20 L | CL, typical value in PK formula ([3]; adult patients, n = 52, 2 CMT, ×(TBW/75)^0.75, ref Miglis et al. 2018 [28]): 2.63 L/h | CL (PK Parameters) [3, 10]: 2.63 ± 1.41 L/h | V (PK Parameters) [3, 10]: 33.77 ± 15.21 L | f, unbound fraction of polymyxin B ([3]; assumed value used for fAUC/MIC, ref Sandri et al., 2013): 0.42 | effect of inhalation therapy on the exposure of polymyxin B in blood ([3]; co-inhalation 25 mg q12h, critically ill patients, ref Yu et al., 2021): did not significantly increase the exposure | CLic [3, 11]: 2.43 mL/min/kg | V1 [3, 11]: 0.0939 L/kg | V2 [3, 11]: 0.330 L/kg | CL, typical value in PK formula ([3]; critically ill patients, n = 24, 2 CMT, ×(TBW/75)^0.75, ref Sandri et al. 2013 [22]): 0.46 mL/min/kg | urinary recovery ([3]; non-renal clearance considered the major route, ref Tsuji et al., 2019): low | CL, typical value in PK formula ([3]; renal transplant patients, n = 50, 1 CMT, CL = 1.18×(CrCL/22.2)^0.14, ref Li et al. 2021 [14]): 1.18 L/h | V ([3]; renal transplant patients, n = 50, 1 CMT, ref Li et al. 2021 [14]): 12.09 L | penetration in the lungs [4]: poor penetration in the lungs

colistin
fAUC/MIC value for 2log10 bacterial killings (P. aeruginosa): approximately 20 | fAUC/MIC value for 2log10 bacterial killings (Acinetobacter Baumannii): approximately 20
